The target of data set [1] is D(3) dopamine receptor (Homo sapiens, UniProt P35462). In words: Displacement of [3H]spiperone from human dopamine D3 receptor expressed in CHO cells. In kind it is cell-based.
Data set [2] in a line: Cmax in rat at 10 mg/kg, po. In kind it is ADME, organism-based. Also noted: dose 10 mg/kg, route oral. As to conditions: in vivo; call rule not given here.
The target of data set [3] is T1, D(4) dopamine receptor (Homo sapiens, UniProt P21917).
T1 sequence (P21917 whole entry): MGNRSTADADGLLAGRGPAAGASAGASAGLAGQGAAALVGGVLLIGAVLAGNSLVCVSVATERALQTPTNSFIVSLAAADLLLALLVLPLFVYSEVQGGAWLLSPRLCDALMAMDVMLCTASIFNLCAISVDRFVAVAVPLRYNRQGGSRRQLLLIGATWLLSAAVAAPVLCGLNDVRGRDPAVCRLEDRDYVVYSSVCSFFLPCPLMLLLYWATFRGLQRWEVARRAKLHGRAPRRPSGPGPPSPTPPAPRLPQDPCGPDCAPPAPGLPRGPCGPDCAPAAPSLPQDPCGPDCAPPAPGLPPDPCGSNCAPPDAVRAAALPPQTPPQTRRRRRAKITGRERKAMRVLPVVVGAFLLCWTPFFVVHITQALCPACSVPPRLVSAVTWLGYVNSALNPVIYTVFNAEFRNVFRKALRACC
In words: Displacement of [3H]spiperone from human dopamine D4 receptor expressed in CHO cells. The format is cell-based. Background: In a radioligand displacement assay an active substance lowers the binding of a labelled ligand.

Data set [4] is described as follows: AUC in rat at 10 mg/kg, po. In kind it is ADME, organism-based. Also noted: dose 10 mg/kg, route oral. The settings on record: plasma.
The test system of data set [5] is Rattus norvegicus. Briefly: Antidepressant like activity in sc dosed rat resident-intruder model assessed as reduction of aggressive behavior level administered 30 mins prior to test. In kind it is functional.
Data set [6] addresses T2, Cytochrome P450 2C8 (Homo sapiens, UniProt P10632).
T2 sequence (P10632 whole entry): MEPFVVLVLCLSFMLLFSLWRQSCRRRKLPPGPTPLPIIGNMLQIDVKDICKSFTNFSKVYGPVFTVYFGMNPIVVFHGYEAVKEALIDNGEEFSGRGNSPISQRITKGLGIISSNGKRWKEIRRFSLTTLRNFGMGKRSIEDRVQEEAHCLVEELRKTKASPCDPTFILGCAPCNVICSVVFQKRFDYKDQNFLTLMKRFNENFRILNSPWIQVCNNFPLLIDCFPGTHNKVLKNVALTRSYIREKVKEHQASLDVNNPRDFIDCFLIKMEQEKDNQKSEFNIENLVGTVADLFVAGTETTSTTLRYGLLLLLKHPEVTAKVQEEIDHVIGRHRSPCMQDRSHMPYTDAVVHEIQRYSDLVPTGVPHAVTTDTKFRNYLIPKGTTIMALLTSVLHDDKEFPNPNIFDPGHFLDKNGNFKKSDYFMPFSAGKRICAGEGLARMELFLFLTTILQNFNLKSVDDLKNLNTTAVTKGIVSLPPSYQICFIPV
In words: Inhibition of CYP2C8 in human liver microsomes. In kind it is ADME, Microsome.

Data set [7] concerns Rattus norvegicus. In words: Initial plasma concentration in rat at 1 mg/kg, iv. Also noted: dose 1 mg/kg, route intravenous. The settings on record: in vivo. In kind it is ADME, organism-based.
The target in data set [8] is Cytochrome P450 2D6 (Homo sapiens, UniProt P10635). In words: Inhibition of CYP2D6 in human liver microsomes upto100 uM. In kind it is ADME, Microsome. (Microsomes from liver hold many membrane-bound enzymes, among them those of drug oxidation.)
In data set [9] the target is T3, 5-hydroxytryptamine receptor 1A (Homo sapiens) (UniProt P08908).
T3 sequence (whole entry): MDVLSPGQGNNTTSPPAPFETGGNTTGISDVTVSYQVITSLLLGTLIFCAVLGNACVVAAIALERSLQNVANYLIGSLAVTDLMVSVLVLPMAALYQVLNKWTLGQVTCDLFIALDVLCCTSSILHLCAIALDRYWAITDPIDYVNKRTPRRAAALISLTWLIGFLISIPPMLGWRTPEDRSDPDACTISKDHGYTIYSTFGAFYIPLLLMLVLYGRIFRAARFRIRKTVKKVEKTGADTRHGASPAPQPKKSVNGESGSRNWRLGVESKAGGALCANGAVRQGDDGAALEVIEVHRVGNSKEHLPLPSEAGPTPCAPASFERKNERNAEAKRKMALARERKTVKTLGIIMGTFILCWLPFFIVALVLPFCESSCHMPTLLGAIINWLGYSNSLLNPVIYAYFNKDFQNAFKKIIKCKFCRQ
In words: Antagonist activity at human 5HT1A receptor expressed in CHO cells assessed as inhibition of [35S]GTPgammaS binding relative to control. In kind it is functional, cell-based. A general note: GTPγS resists hydrolysis and so accumulates on activated G proteins.

Data set [10] in a line: AUC in rat at 3 mg/kg, po. In kind it is ADME, organism-based. Also noted: dose 3 mg/kg, route oral. As to conditions: plasma.
Data set [11] deals with T4, 5-hydroxytryptamine receptor 1A (Homo sapiens, UniProt P08908).
T4 sequence (P08908 whole entry): T3 sequence (whole entry)
Description: Antagonist activity at human 5HT1A receptor expressed in CHO cells assessed as stimulation of [35S]GTPgammaS binding

pIC50, pKi: −log10 of the molar value.

Sequence of Cytochrome P450 2D6 (P10635 whole entry): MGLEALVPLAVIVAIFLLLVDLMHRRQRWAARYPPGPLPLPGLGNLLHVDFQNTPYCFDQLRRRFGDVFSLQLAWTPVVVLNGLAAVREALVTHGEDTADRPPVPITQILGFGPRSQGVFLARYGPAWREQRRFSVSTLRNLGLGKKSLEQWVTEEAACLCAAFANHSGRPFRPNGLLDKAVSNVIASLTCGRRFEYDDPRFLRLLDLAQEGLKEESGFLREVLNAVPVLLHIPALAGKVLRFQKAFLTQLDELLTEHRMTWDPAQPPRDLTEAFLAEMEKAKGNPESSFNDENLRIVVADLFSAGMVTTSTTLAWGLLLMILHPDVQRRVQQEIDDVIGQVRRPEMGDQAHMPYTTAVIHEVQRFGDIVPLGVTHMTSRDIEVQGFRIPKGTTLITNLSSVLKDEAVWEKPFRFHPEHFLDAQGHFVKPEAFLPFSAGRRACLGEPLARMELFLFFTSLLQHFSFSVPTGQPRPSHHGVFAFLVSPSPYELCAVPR
Sequence of D(3) dopamine receptor (P35462 whole entry): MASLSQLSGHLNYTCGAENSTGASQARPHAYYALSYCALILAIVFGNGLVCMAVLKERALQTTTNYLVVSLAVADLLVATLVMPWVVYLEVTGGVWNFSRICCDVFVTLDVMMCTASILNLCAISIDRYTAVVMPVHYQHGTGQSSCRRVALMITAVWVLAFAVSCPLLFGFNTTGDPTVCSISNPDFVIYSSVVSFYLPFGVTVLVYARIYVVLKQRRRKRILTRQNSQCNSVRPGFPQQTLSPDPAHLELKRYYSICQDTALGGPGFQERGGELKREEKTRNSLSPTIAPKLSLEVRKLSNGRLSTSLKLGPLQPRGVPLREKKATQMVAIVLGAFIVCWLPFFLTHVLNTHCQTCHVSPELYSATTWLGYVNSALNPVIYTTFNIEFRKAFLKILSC

Regarding `Cc1ccc2c3c(ccc2n1)OC[C@H](CN1CCN(c2ccc4cc(C#N)ccc4n2)CC1)O3`, the pKi in data set [1] is 5.88; in data set [3] it was 5.85. The compound further showed a Cmax in [2] of 815 ng/mL. In addition, the AUC was 4620 ng·h/mL in [4] and 2320 ng·h/mL in data set [10]. The Activity result in [5] was “Dose-dependent effect”. Further, the ED50 in data set [5] (read-out: ID50 (the source's name)) turned out to be 12.5 mg/kg. The negative logarithm of the IC50 (pIC50) in data set [6] was 4.54; in data set [11], 6.99. The C0 in data set [7] is 903 ng/mL. Moreover, the “inhibition (INH)” value in [8] is listed as “Not Active”. In addition, in data set [9], the Imax stood at 88.6%.

By pKi is commonly meant the Ki on a negative log10 scale, so that one unit is a factor of ten. A lower pKi goes with a large Ki. Broadly, the Cmax is the maximum level reached in the sampled fluid or tissue. In general, AUC refers to concentration integrated over time. The low end stands for less exposure, the high end for more exposure. As a reminder, the pIC50 is the IC50 on a negative log10 scale, so that one unit is a factor of ten. Low readings indicate a high IC50, high ones a low IC50.

The values are drawn from ChEMBL document CHEMBL1151947, “Synthesis, potency, and in vivo evaluation of 2-piperazin-1-ylquinoline analogues as dual serotonin reuptake inhibitors and serotonin 5-HT1A receptor antagonists” (J Med Chem, 2009).
